Data taken from patent US20040071799A1, “Herbal compositions and methods for effecting weight loss in humans” (priority 2001, published 2004).

Assays:
[1] = in vivo; cited from earlier work
[2] = Young growing male Wistar rats fed obesity-inducing diet, 90 days (Example 3); format: in vivo; conditions: fenfluramine group
Method: Young growing male Wistar rats, of about 220 grams average initial weight, were fed the obesity-inducing diet. Concomitantly, the rats were administered, 1.0 gram DRD, 1.5 grams DRD, or 5.0 grams DRD, by daily intubation, for 90 days. The treatment groups gained 21%, 24% and 47% less weight, respectively, than did the placebo controls. The rats administered fenfluramine gained 22% less weight than did the controls.
Thus, the prevention of weight gain appears to be due to a reduction in fat storage, and that the skeletal muscle had been preserved.

[3] = Female Wistar rats fed high fat diet for 56 days (Example 4); format: in vivo
Method: Sixty female Wistar rats, averaging 220 g in weight, were randomly allotted to five experimental groups and fed the high fat diet described in Table I below for 56 days. The rats were housed individually in wire mesh cages equipped with an automated watering system. The room housing the rats was maintained at a temperature of 22° to 24° C., with a light-dark cycle of 12 hours each. Following the one-week quarantine period the rats were adapted to handling, and to oral insertion of the gastric intubation device over the next ten days. Water was intubated once a day during this period. After ten days, the rats no longer indicated marked distress during the procedure.
After adaption to the intubation procedure, the diet of Table I was initiated. This diet is comprised of 56% of energy from fat. All treatment and placebo intubations occurred between 1600 and 1800 hours. Individual food intake was measured daily throughout the study. Body weight was measured daily through day 23 and twice weekly thereafter. The experimental period lasted 56 days. Lin, X., M. R. Chavex, R. C. Bruch, et al., J. Nutrition 128:1606-13, 1998.
Referring to Table II below, the five groups consisted of: the control group (n=15), which were fed ad libitum, and were intubated daily with 1 mL of water. The “low dose DRD” (n=10) and the “high dose DRD” (n=15) groups, which were fed ad libitum and administered daily 1 mL of the aqueous extract obtained from 0.75 grams and 1.50 grams of the initial dried herb mixture by intubation, respectively. The “fenfluramine group” (n=10), which was fed ad libitum and received 2 mg/kg fenfluramine in 1 mL of water daily, by intubation, and, finally, a fifth group (n=10) was pair-fed to the high dose DRD group and was administered 1 mL of water daily, by intubation.
Food consumption for all rats was determined daily, and body weights were obtained daily for the first 23 days, and then twice a week for the next 33 days. After 56 days all the rats except five from the control group and five from the high dose DRD group were sacrificed. Trunk blood was collected, and the eviscerated carcasses were homogenized, dried and assayed for body composition. White and brown fat depots, liver, kidney, spleen, heart, and gastrocnemius muscle were weighed. During the 56 days of the experiment, all rats were observed daily by the animal technician, and weekly by a veterinarian, and notations were made regarding physical activity/lethargy, fur condition, skin condition, eye condition, stools, and “others.” There were no noticeable differences among any of the groups with regard to physical activity, skin condition, and eye condition. […] This behavior lasted about one week and then stopped.
The serum was analyzed for insulin, corticosterone and leptin, using standard commercially available immunoassays for the rat. Alkaline phosphatase, alanine aminotransferase, amylase, aspartate aminotransferase, chloride, cholesterol, creatinine phosphokinase, γ-glutamyl transpeptidase, glucose, hemoglobin, hematocrit, mean cell volume, platelets, potassium, sodium, triglycerides, and white blood cells were assayed by standard clinical laboratory methods. All data were pooled by treatment and subjected to a One-Way Analysis of Variance (ANOVA) followed by a Scheffe Comparison of Means analysis (for unbalanced groups). Statistix® for Windows, 1998. Analytical Software, Tallahassee, Fla. 32317.
The rats that were not sacrificed and had previously received the high dose DRD had their treatment withdrawn during a 14-day “recovery period.” On the 15th day of this recovery period these rats, plus five control rats, were sacrificed and all the above analyses were conducted.

[4] = d-fenfluramine 2 mg/kg, 56 days

SMILES | decrease of the amount of fat absorbed from the diet [1] | less weight gained than controls [2] [%] | Average Final Weight, Gms ± SD. [3, 4] [Gms] | Average Gain, Gms ± SD [3, 4] [Gms] | calories required to cause a one-gram weight gain ([3]; fenfluramine) [calories] | food efficiency: gain in weight per calorie available for gain above maintenance ([3]; fenfluramine) [grams per calorie] | less weight gained than controls ([3]; fenfluramine 2 mg/kg daily, 56th day) [%] | total food consumed ([3]; fenfluramine, 56 day period) | food efficiency lower than controls (grams gain per gram of food ingested) ([3]; fenfluramine, 56 days) [%] | weight gained as fat (body composition) ([3]; fenfluramine, 56 days) | serum leptin ([3]; fenfluramine, end of 56-day treatment)
CCCCCCCCCCC[C@@H](C[C@@H]1OC(=O)[C@H]1CCCCCC)OC(=O)[C@H](CC(C)C)NC=O [Orlistat] | diet by 30%. |  |  |  |  |  |  |  |  |  | 
CCNC(C)Cc1cccc(C(F)(F)F)c1 (centres unmarked) [fenfluramine] |  | 22 | 325.7 ± 33.7 | 106.9 ± 22.0 | 18.16 | 0.0545 | 12.3 | consumed less total food over the 56 day period than the controls | 7.8 | gained significantly less fat than did the controls | less leptin than controls
